Measurements from US9187496B2 (priority 2009, dated 2015).
Like-named read-outs stand apart in the source and are kept apart here.

Tests used:
[1] = test system: Huh-7 cells containing HCV Con1 subgenomic replicon (GS4.1 cells); assay: HCV replicon assay (NS5A ELISA); type: cell-based
Description: General Procedure: Huh-7 cells containing HCV Con1 subgenomic replicon (GS4.1 cells) were grown in Dulbecco's Modified Eagle Medium (DMEM) supplemented with 10% fetal bovine serum (FBS), 2 mM L-glutamine, 110 mg/L sodium pyruvate, 1× non-essential amino acids, 100 U/mL penicillin-streptomycin, and 0.5 mg/mL G418 (Invitrogen). For dose-response testing, the cells were seeded in 96-well plates at 7.5×10^3 cells/well in a volume of 50 μL, and incubated at 37° C./5% CO2. Three hours after plating, 50 μL of ten 2-fold serial dilutions of compounds (highest concentration, 75 μM) were added, and cell cultures were incubated at 37° C./5% CO2 in the presence of 0.5% DMSO. Alternatively, compounds were tested at a single concentration of 15 μM. In all cases, Huh-7 cells lacking the HCV replicon served as negative control. The cells were incubated in the presence of compounds for 72 hrs after which they were monitored for expression of the NS5A protein by enzyme-linked immunosorbent assay (ELISA). For this, the plates were then fixed for 1 min with acetone/methanol (1:1, v/v), washed twice with phosphate-buffered saline (PBS), 0.1% Tween 20, blocked for 1 hr at room temperature with TNE buffer containing 10% FBS and then incubated for 2 hr at 37° C. with the anti-NS5A mouse monoclonal antibody A-236 (ViroGen) diluted in the same buffer. After washing three times with PBS, 0.1% Tween 20, the cells were incubated 1 hr at 37° C. with anti-mouse immunoglobulin G-peroxidase conjugate in TNE, 10% FBS. After washing as described above, the reaction was developed with O-phenylenediamine (Zymed). The reaction was stopped after 30 min with 2 N H2SO4, and absorbance was read at 492 nm using Sunrise Tecan spectrophotometer. EC50 values were determined from the % inhibition versus concentration data using a sigmoidal non-linear regression analysis based on four parameters with Tecan Magellan software.

GS4.1 cells = assay: Cytotoxicity evaluation in GS4.1 cells (Cell Titer 96 AQueous One); type: cell-based, human; settings: cellular viability
Description: For cytotoxicity evaluation, GS4.1 cells were treated with compounds as described above and cellular viability was monitored using the Cell Titer 96 AQueous One Solution Cell Proliferation Assay (Promega). CC50 values were determined from the % cytotoxicity versus concentration data with Tecan Magellan software as described above.

[2] = Hepatitis C virus, Huh-7, GS4.1 cells, 72 hrs, NS5A ELISA, read-out: EC50
[3] = GS4.1 cells, 72 hrs, NS5A ELISA, read-out: EC50

Row | Compound | EC50 [1, 2] [µM] | CC50 (GS4.1 cells) [µM] | EC50 [1, 3] [µM] | EC50 ([1]; Hepatitis C virus, Huh-7, 72 h) [µM]
1 | COC(=O)N[C@H](C(=O)N1CCCC1c1ncc(-c2ccc(-c3cn4c(-c5ccccc5)csc4n3)cc2)[nH]1)C(C)C (some centres unmarked) [A162] | 0.001 to 0.01 | 10 to 75 | – | –
2 | COC(=O)N[C@H](C(=O)N1CCC[C@H]1c1ncc(-c2ccc(-c3cn4cc(NC(=O)[C@@H]5CCCN5C(=O)[C@H](NC(=O)OCC(C)C)c5ccccc5)nc4s3)cc2)[nH]1)C(C)C [A57] | – | > 75 | < 0.001 | –
3 | COC(=O)N[C@H](C(=O)N1CCCC1c1ncc(-c2ccc(-c3csc4c(-c5cnc(C6CCCN6C(=O)OCc6ccccc6)[nH]5)csc34)cc2)[nH]1)C(C)C (some centres unmarked) [A49] | < 0.001 | > 75 | – | –
4 | COC(=O)N[C@H](C(=O)N1CCC[C@H]1c1ncc(-c2ccc(-c3cn4cc(-c5cnc(C6CCCN6C(=O)[C@@H](NC(=O)OC(C)(C)C)c6ccccc6)[nH]5)nc4s3)cc2)[nH]1)C(C)C (some centres unmarked) [A33] | < 0.001 | > 75 | – | –
5 | COC(=O)N[C@@H](C(=O)N1CCC[C@H]1C(=O)Nc1ccc(C#Cc2cn3cc(NC(=O)[C@@H]4CCCN4C(=O)[C@H](NC(=O)OC)c4ccccc4)nc3s2)cc1)c1ccccc1 [A80] | – | > 75 | < 0.001 | –
6 | COC(=O)N[C@H](C(=O)N1CCCC1c1ncc(-c2ccc(-c3cc4sc(Br)cc4s3)cc2)[nH]1)C(C)C (some centres unmarked) [A168] | 0.01 to 0.1 | 10 to 75 | – | –
7 | COC(=O)N[C@H](C(=O)N1CCCC1c1ncc(-c2ccc(-c3csc4c(-c5ccccc5)csc34)cc2)[nH]1)C(C)C (some centres unmarked) [A103] | 0.001 to 0.01 | 10 to 75 | – | –
8 | CCOC(=O)N[C@@H](C(=O)N1CCC[C@H]1C(=O)Nc1cn2cc(-c3ccc(-c4cnc([C@@H]5CCCN5C(=O)[C@@H](NC(=O)OC)C(C)C)[nH]4)cc3)sc2n1)c1ccccc1 [Compound A55, (S,S,S,R)-[1-(2-{5-[4-(6-{[1-(2-ethoxycarbonylamino-2-phenylacetyl)-pyrrolidine-2-carbonyl]-amino}imidazo[2,1-b]thiazol-2-yl)-phenyl]-1H-imidazol-2-yl}pyrrolidine-1-carbonyl)-2-methyl-propyl]-carbamic acid methyl ester] | < 0.001 | 10 to 75 | – | –
9 | COC(=O)N[C@H](C(=O)N1CCCC1c1ncc(-c2cn3cc(-c4ccc(-c5cnc([C@@H]6CCCN6C(=O)[C@@H](NC(=O)OC)C(C)C)[nH]5)cc4)nc3s2)[nH]1)C(C)C (some centres unmarked) [A7] | < 0.001 | > 75 | – | –
10 | COC(=O)N[C@H](C(=O)N1CCCC1c1nc(-c2ccc(-c3c(C(=O)OC)[nH]c4c(-c5ccc(-c6cnc(C7CCCN7C(=O)[C@@H](NC(=O)OC)C(C)C)[nH]6)cc5)csc34)cc2)c[nH]1)C(C)C (some centres unmarked) [Compound A163] | < 0.001 | > 75 | – | –
11 | COC(=O)N[C@H](C(=O)N1CCC[C@H]1C(=O)Nc1ccc(-c2cn3cc(NC(=O)OC(C)(C)C)nc3s2)cc1)C(C)C [A34] | – | 10 to 75 | 0.001 to 0.01 | –
12 | CC(C)(C)OC(=O)N[C@@H](C(=O)N1CCOC[C@H]1C(=O)Nc1cn2cc(-c3ccccc3)sc2n1)c1ccccc1 [Compound A22] | > 0.1 | > 75 | – | –
13 | COC(=O)N[C@H](C(=O)N1CCCC1c1ncc(-c2cc3sc(-c4ncc(-c5c[nH]c([C@@H]6CCCN6C(=O)[C@@H](NC(=O)OC)C(C)C)n5)s4)cc3s2)[nH]1)C(C)C (some centres unmarked) [A130] | < 0.001 | > 75 | – | –
14 | COC(=O)N[C@H](C(=O)N1CCCC1c1ncc(-c2ccc(-c3cn4ccsc4n3)cc2)[nH]1)C(C)C (some centres unmarked) [A160] | 0.01 to 0.1 | > 75 | – | –
15 | COC(=O)N[C@H](C(=O)N1CCCC1c1cc(-c2ccc(-c3csc4c(-c5ccc(-c6cnc(C7CCCN7C(=O)[C@@H](NC(=O)OC)C(C)C)[nH]6)cc5)csc34)cc2)[nH]n1)C(C)C (some centres unmarked) [A87] | < 0.001 | > 75 | – | –
16 | COC(=O)N[C@H](C(=O)N1CCC[C@H]1c1ncc(-c2csc3c(-c4cnc([C@@H]5CCCN5C(=O)[C@@H](NC(=O)OC)C(C)C)[nH]4)csc23)[nH]1)C(C)C [Compound A82, ((S)-1-{(S)-2-[5-(6-{2-[(S)-1-((S)-2-methoxycarbonylamino-3-methyl-butyryl)-pyrrolidin-2-yl]-3H-imidazol-4-yl}-thieno[3,2-b]thiophen-3-yl)-1H-imidazol-2-yl]-pyrrolidine-1-carbonyl}-2-methyl-propyl)-carbamic acid methyl ester] | < 0.001 | 10 to 75 | – | –
17 | COC(=O)N[C@H](C(=O)N1CCCC1c1ncc(-c2ccc(-c3csc4c(-c5cnc(C6CCCN6C(=O)[C@@H](NC(=O)OC(C)(C)C)C(C)C)[nH]5)csc34)cc2)[nH]1)C(C)C (some centres unmarked) [A76] | < 0.001 | > 75 | – | –
18 | COC(=O)N[C@H](C(=O)N1CCC[C@H]1c1ncc(-c2ccc(-c3cn4cc(NC(=O)[C@@H]5CCCN5C(=O)[C@H](NC(=O)OC(C)C)c5ccccc5)nc4s3)cc2)[nH]1)C(C)C [A56] | < 0.001 | > 75 | – | –
19 | CC(C)(C)OC(=O)N1CCCC1c1ncc(-c2ccc(-c3cn4ccsc4n3)cc2)[nH]1 (centres unmarked) [A167] | > 0.1 | – | – | –
20 | COC(=O)N[C@H](C(=O)N1CCC[C@H]1c1cc(-c2ccc(-c3cn4cc(NC(=O)[C@@H]5CCCN5C(=O)[C@H](NC(=O)OC(C)C)c5ccccc5)nc4s3)cc2)[nH]n1)C(C)C [A156] | < 0.001 | > 75 | – | –
21 | COC(=O)N[C@H](C(=O)N1CCC[C@H]1C(=O)Nc1cn2cc(-c3ccc(-c4cnc([C@@H]5CCCN5C(=O)[C@@H](NC(=O)OC)C(C)C)[nH]4)cc3)sc2n1)C(C)C [Compound A2, (S,S,S,S)-(1-{2-[2-(4-{2-[1-(2-methoxycarbonylamino-3-methyl-butyryl)-pyrrolidin-2-yl]-3H-imidazol-4-yl}-phenyl)-imidazo[2,1-b]thiazol-6-ylcarbamoyl]-pyrrolidine-1-carbonyl}-2-methyl-propyl)-carbamic acid methyl ester] | 0.001 to 0.01 | 10 to 75 | – | –
22 | COC(=O)N[C@H](C(=O)N1CCCC1c1nc(-c2ccc(-c3cn4cc(-c5ccc(-c6cnc([C@@H]7CCCN7C(=O)[C@@H](NC(=O)OC)C(C)C)[nH]6)cc5)sc4n3)cc2)c[nH]1)C(C)C (some centres unmarked) [A93] | < 0.001 | > 75 | – | –
23 | CC(C)(C)OC(=O)N1CCCC1c1ncc(-c2ccc(-c3nc4sccn4c3Cl)cc2)[nH]1 (centres unmarked) [A161] | > 0.1 | > 75 | – | –
24 | COC(=O)N[C@H](C(=O)N1CCC[C@H]1c1ncc(-c2ccc(-c3cn4cc(NC(=O)[C@@H]5CCCN5)nc4s3)cc2)[nH]1)C(C)C [A150] | – | 10 to 75 | 0.01 to 0.1 | –
25 | COC(=O)N[C@H](C(=O)N1CCCC1c1nc(-c2ccc(-c3sc4cc(-c5ccc(-c6cnc([C@@H]7CCCN7C(=O)[C@@H](NC(=O)OC)C(C)C)[nH]6)cc5)sc4c3-c3ccc(-c4cnc(C5CCCN5C(=O)[C@@H](NC(=O)OC)C(C)C)[nH]4)cc3)cc2)c[nH]1)C(C)C (some centres unmarked) [A105] | – | 10 to 75 | – | 0.01 to 0.1
26 | COC(=O)N[C@H](C(=O)N1CCC[C@H]1c1ncc(-c2ccc(-c3cn4cc(NC(=O)[C@@H]5CCCN5C(=O)[C@H](NC(=O)OC)c5ccccc5)nc4s3)cc2)[nH]1)C(C)C [Compound A30, (S,S,S,R)-[1-(2-{5-[4-(6-{[1-(2-methoxycarbonylamino-2-phenyl-acetyl)-pyrrolidin-2-carbonyl]-amino}-imidazo[2,1-b]thiazol-2-yl)-phenyl]-1H-imidazol-2-yl}-pyrrolidine-1-carbonyl)-2-methyl-propyl]-carbamic acid methyl ester] | < 0.001 | > 75 | – | –
27 | COC(=O)N[C@H](C(=O)N1CCCC1c1ncc(-c2csc3c(-c4ccc(-c5cnc(C6CCCN6C(=O)[C@@H](NC(=O)OC)C(C)C)[nH]5)cc4)csc23)[nH]1)c1ccccc1 (some centres unmarked) [A78] | < 0.001 | > 75 | – | –
28 | COC(=O)N[C@H](C(=O)N1CCC[C@H]1c1ncc(-c2ccc(-c3cn4cc(NC(=O)[C@@H]5CCCN5C(=O)[C@H](NC(=O)OC(C)(C)C)c5ccccc5)nc4s3)cc2)[nH]1)C(C)C [Compound A1, (S,S,S,R)-[1-(2-{5-[4-(6-{[1-(2-tert-butoxycarbonylamino-2-phenyl-acetyl)-pyrrolidine-2-carbonyl]-amino}imidazo[2,1-b]thiazol-2-yl)-phenyl]-1H-imidazol-2-yl}pyrrolidine-1-carbonyl)-2-methyl-propyl]-carbamic acid methyl ester] | < 0.001 | > 75 | – | –
29 | COC(=O)N[C@H](C(=O)N1CCCC1c1nc(-c2ccc(-c3cc4sc(-c5ccc(-c6cnc([C@@H]7CCCN7C(=O)[C@@H](NC(=O)OC)C(C)C)[nH]6)cc5)cc4s3)cc2)c[nH]1)C(C)C (some centres unmarked) [A159] | < 0.001 | > 75 | – | –
30 | COC(=O)N[C@H](C(=O)N1CCC[C@H]1C(=O)Nc1ccc(-c2cn3cc(NC(=O)C4CCCN4C(=O)[C@@H](NC(=O)OC)C(C)C)nc3s2)cc1)c1ccccc1 (some centres unmarked) [A32] | < 0.001 | > 75 | – | –
